Values of other authors, collected in PMC5073354, “Direct and indirect mechanisms of KLK4 inhibition revealed by structure and dynamics” (Scientific Reports, 2016).

How the values were obtained:
KLK4 [1] = test system: KLK4
Excerpt: Since the trypsin-SFTI-1 and matriptase-SFTI-1 protease/inhibitor complexes have been characterized by X-ray crystallography, a structural context is available to dissect relative potencies. […] To examine the interaction between KLK4 and inhibitor we determined the X-ray crystal structure of a KLK4-SFTI-1 complex to 1.0 Å resolution. The inhibitor structure is well-resolved except for missing density in the backbone of Pro13 and the side chain of Asp14. The contact β-sheet of SFTI-1 has multiple interactions with the KLK4 active site, including the P1 Lys5 inserting into the S1 pocket of KLK4 (Fig. 1B). || When comparing the structure of SFTI-1 in the context of trypsin, matriptase and KLK4, differences in the interface correlate to the potency of inhibition. […] Comparison of the structures provides arguments to support this lowered inhibition. SFTI-1 has less buried surface area and fewer interactions with KLK4 than with either trypsin or matriptase (Table S1). SFTI-1 behaves as a Laskowski inhibitor, interacting with its targets following the classi ... || (+ 1 further places)

matriptase = test system: matriptase
Excerpt: (§1) Since the trypsin-SFTI-1 and matriptase-SFTI-1 protease/inhibitor complexes have been characterized by X-ray crystallography, a structural context is available to dissect relative potencies.

trypsin = test system: trypsin
Excerpt: as §1

KLK4 [2] = settings: ion binding to residues more than 20 Å from the active site
Excerpt: To gain more insight into this mode of inhibition, we crystallized KLK4 under identical conditions but in the absence of PABA inhibitor.

Factor VIIa = settings: FVIIa not bound to tissue factor
Excerpt: Kallikreins are proteases that perform catalysis in organs with high zinc concentrations. The KLK4 inactivation by nickel described in this work is also proposed to apply to zinc binding to the same […]/[…] site[23]. A molecular understanding of zinc-mediated inhibition of members of the kallikrein family is emerging with three types of inhibition seen[41]. […] This is proposed to inhibit activity by […][42]. Second, zinc binding to residues in loop IV (also known ...

KLK4 [3] = settings: library of tetrapeptide pNA substrates with invariant P1 Arg
Excerpt: We previously tested the amidolytic activity of KLK4 against a focused library of synthetic tetrapeptide substrates with an invariant P1 Arg[13]. […] To investigate the structural basis for increased potency, we solved the crystal struct ...

For “1GRCTKSIPPICFPD14 (bicyclic or more) [SFTI-1, sunflower trypsin inhibitor-1, 14 amino acid bicyclic peptide; backbone cyclization coupled with an intramolecular disulfide linkage]”, the “rank of potency, KLK4 versus trypsin and matriptase (in words)” value (KLK4 [1]; discrepancy in reported SFTI-1 inhibition constants (ref 12, 26, 27)) is listed as “KLK4 is thought to be the least potently inhibited”, the “inhibition of KLK4 (in words)” value (KLK4 [1]; proteolytic activity of KLK4) is listed as “potently inhibits KLK4 proteolytic activity” and the “inhibition of matriptase (in words)” value (matriptase) is listed as “inhibit KLK4 in addition to trypsin and matriptase”. For the same compound, the “inhibition of trypsin (in words)” value (trypsin) was “inhibit KLK4 in addition to trypsin and matriptase”.
In the case of [Ni+2] [Ni^2+, nickel], the “inhibition of KLK4 by metal (in words)” value (KLK4 [2]) is given as “KLK4 can be inhibited”.
In the case of [Ca+2] [calcium], the “reversal of zinc inhibition of FVIIa (in words)” value (Factor VIIa; zinc-inhibited) is listed as “can reverse this inhibition with calcium”.
In the case of [Zn+2] [zinc], the “inhibition of FVIIa by zinc (in words)” value (Factor VIIa) is listed as “is inhibited by zinc”.
In the case of “FVQR-p-nitroanilide [FVQR-p-nitroanilide (pNA)]”, the “amidolytic activity of KLK4 for substrate (in words)” value (KLK4 [3]) is given as “highest activity”.
